Among the data in patent publication US20150099800A1, “NOVEL LIPASE INHIBITORS, REPORTER SUBSTRATES AND USES THEREOF” (Northeastern University, priority 2012, published 2015) are inhibition values, retold here.

This assay has as its target T1, hDAGLα (Homo sapiens, UniProt Q9Y4D2).
T1 sequence (Q9Y4D2 1-1042): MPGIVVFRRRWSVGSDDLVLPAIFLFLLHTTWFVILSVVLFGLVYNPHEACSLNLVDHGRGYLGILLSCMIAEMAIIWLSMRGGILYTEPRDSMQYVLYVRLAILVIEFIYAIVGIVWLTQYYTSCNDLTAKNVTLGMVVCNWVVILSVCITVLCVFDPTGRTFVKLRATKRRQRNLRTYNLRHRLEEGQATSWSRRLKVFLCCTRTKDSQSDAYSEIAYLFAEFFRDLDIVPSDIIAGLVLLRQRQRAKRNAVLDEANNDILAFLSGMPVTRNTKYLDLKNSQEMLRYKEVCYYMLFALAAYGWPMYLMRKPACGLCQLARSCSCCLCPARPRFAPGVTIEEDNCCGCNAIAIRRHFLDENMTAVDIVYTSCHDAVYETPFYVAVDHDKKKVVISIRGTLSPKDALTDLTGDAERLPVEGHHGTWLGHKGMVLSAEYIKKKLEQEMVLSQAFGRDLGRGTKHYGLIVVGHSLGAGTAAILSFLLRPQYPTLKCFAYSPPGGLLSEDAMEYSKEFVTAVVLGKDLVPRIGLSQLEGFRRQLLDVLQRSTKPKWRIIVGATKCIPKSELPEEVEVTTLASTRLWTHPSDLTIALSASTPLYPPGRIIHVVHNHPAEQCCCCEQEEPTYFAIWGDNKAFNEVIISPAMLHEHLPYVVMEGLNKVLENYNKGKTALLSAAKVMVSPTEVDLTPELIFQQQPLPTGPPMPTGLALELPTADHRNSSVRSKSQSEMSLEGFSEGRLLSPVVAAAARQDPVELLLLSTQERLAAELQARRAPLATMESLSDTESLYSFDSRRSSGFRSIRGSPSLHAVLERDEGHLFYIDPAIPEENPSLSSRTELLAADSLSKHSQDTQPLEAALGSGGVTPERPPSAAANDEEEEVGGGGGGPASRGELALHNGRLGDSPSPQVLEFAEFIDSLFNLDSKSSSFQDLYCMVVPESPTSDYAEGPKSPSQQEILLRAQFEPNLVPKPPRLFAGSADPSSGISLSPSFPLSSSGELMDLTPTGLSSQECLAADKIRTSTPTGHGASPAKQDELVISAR
Nature of the assay: biochemical. As to conditions: read-out: hDAGLα inhibition at 10 μM TLC (with Triton X-100) (%), 10 μM; 0.05% Triton X-100 present.

A word on the inhibition: it is the share of the control response that was lost under treatment.

In the case of `CCCCCCCCCCC[C@@H](C[C@@H]1OC(=O)[C@H]1CCCCCC)OC(=O)[C@H](CC(C)C)NC=O` [Compound 3, tetrahydrolipstatin], the inhibition at 10 µM is 100%.
